Test results published in patent US7169792B2, “Method of treating bacterial infections using gemifloxacin or a salt thereof and a β-lactam antibiotic” (priority 2002, dated 2007).
Where two headings read alike, the source gives them in different places.

Tests used:
E. faecalis ATCC 29212 = assay: checkerboard titration, gemifloxacin and cefotaxime (MIC, FIC); assay type: cell-based, Enterococcus faecalis
Protocol: 1) The combined effect of gemifloxacin and cefotaxime was investigated in E. faecalis by using a checkerboard titration method. Evaluation for synergistic activity was carried out by calculation of fractional inhibitory concentrations (FICs) according to the method of Eliopoulos et al (1996, Antimicrobial Combinations, Antibiotics in Laboratory Medicine, Victor Lorian, 4th Edition, pp 337–338, Baltimore, Md., Williams and Wilkins).
(§1) E. faecalis ATCC 29212 was obtained from the SmithKline Beecham Anti-Infectives Research Culture Collection and stored at −80° C. in 10% glycerol. Before testing, the isolate was passaged onto agar plates (trypticase soy agar containing 5% sheeps blood) from the frozen stock for two consecutive days. Cation adjusted Mueller Hinton broth (BBL, Cockeysville, Md.) was used for the isolate.
(§2) Checkerboard microtitre broth dilution plates were prepared using the Hamilton MicroLab AT Plus system (Reno, Nev.). Two-fold serial dilutions (50 μl) of cefotaxime were made in columns 1 through 11 of a microtitre plate. Two-fold serial dilutions of gemifloxacin were prepared manually and the MicroLab AT Plus was used to dispense 25 μl of gemifloxacin at each concentration into rows A through G of the microtitre plate. The concentration range tested varied for each drug/organism combination to encompass the MIC endpoints of the individual components. Column 12 contained two fold serial dilutions of gemifloxacin only, and row H contained two fold serial dilutions of cefotaxie only. The last well (H) in column 12 was used as a positive growth control well, containing only medium and test isolate.
(§3) The bacteria were diluted to a 0.5 McFarland standard and then further diluted 1/50. Each well was inoculated with 25 μl of the isolate to give a final inoculum density of approximately 5×10^5 cfu/ml. The MicroLab AT Plus 2 was used to add the inoculum to the microtitre plates. After inoculation, the plates were covered with a 96 well microtitre plate lid and incubated at 35° C. in ambient air for 20–24 hours. A 10 μl aliquot of the inoculum was plated on trypticase soy agar containing 5% sheep blood to determine the purity of the final test inoculum.
(§4) Following incubation, a microtitre mirror reader (Cooke Instruments Ltd., England) was used to assist in determining the microdilution MIC endpoints. The MIC was determined as the lowest concentration of compound that inhibited visible growth of the organism.
(§5) The Fractional Inhibitory Concentrations (FICs) were calculated using the following formula: (A)/(MICA)+(B)/(MICB)=FICA+FICB=FICIndex wherein: • A is the MIC of drug A in the presence of drug B • B is the MIC of drug B in the presence of drug A • MIC A is the MIC of the organism to drug A alone • MIC B is the MIC of the organism to drug B alone • FIC A is the fractional inhibitory concentration of drug A • FIC B is the fractional inhibitory concentration of drug B
(§6) The FIC indices were interpreted using the following criteria: • ≦0.5=Synergy • >0.5–1=Additive • >1–2=Indifference • >2=Antagonism

E. coli ATCC 25922 = assay: checkerboard titration, gemifloxacin and cefaclor (MIC, FIC); assay type: cell-based, Escherichia coli
Protocol: as §2, §3, §4, §5, §6
as §1, with “3) E.” for “E.”, “coli” for “faecalis”, “25922” for “29212”, “Cation adjusted Mueller Hinton broth (BBL, Cockeysville, Md.) was used for the isolate.” left out
The combined effect of gemifloxacin and cefaclor was investigated in E. coli ATCC 25922 by using the checkerboard titration method described in Example 1. FIC Indices were calculated and interpreted as in Example 1.

[1] = system: clinically isolated P. aeruginosa strains; assay: checkerboard method, gemifloxacin or ciprofloxacin with ceftazidime, 6 clinical isolates (Example 5); assay type: cell-based, Pseudomonas aeruginosa; details: for FICA: FIC of gemifloxacin; for Cgemifloxacin MIC: in combination with ceftazidime; for MIC: Pseudomonas aeruginosa, drug alone, read-out: gemifloxacin MIC
Protocol: Minimal inhibitory concentrations (MICs) for each separate drug were determined. For wells along the growth-no growth interface, synergy was determined by calculating the Fractional Inhibitory Concentration (FIC) index. The Fractional Inhibitory Concentration (FIC) indices were calculated using the following formula: FICindex=FICA+FICB=[A]/MICA+[B]/MICB • Wherein: • FICA(or B), is the FIC of drug A (or B) MICA (or B) is the MIC of the organism to drug A (or B) • A (or B) is concentration of drug A (or B) that is the lowest inhibitory concentration
The FIC indices were interpreted using the following criteria: • ≦0.5=Synergy • >0.5–1.0=Additive • >1.0–4.0=Indifference • >4.0=Antagonism
The test organisms were clinical isolates collected in Korea. Organisms were frozen at −70 C. prior to testing. […] Gemifloxacin or ciprofloxacin solution was dispensed alone in the first row and combined with ceftazidime in the remaining rows. Ceftazidime as also dispensed alone in the first row in the first column. Test strains of P. aeruginosa were grown for 18 h in Mueller-Hinton broth, and then these overnight cultures were diluted with the same fresh medium to the density of approximately 10^7 CFU/mL. The bacterial concentrations were determined by measuring optical density or turbidity of the suspension and were verified by standard colony counts on antibiotic-free agar plates. A diluted bacterial solution was applied to 96-well plates containing serially diluted antimicrobial agents to yield 5×10^5 CFU/mL. Plates were incubated at 35 C for 18 hours.
MICs for each separate drug were determined, and for wells along the growth-no growth interface, synergy was determined by calculating FIC Indices as in Example 4. FIC Indices were calculated and interpreted as in Example 4.

[2] = drug alone, no unit in this line (other lines μg/ml)

CO/N=C1\CN(c2nc3c(cc2F)c(=O)c(C(=O)O)cn3C2CC2)CC1CN (racemic) [gemifloxacin, (R,S)-7-(3-aminomethyl-4-methoxyiminopyrrolidin-1-yl)-1-cyclopropyl-6-fluoro-4-oxo-1,4-dihydro-1,8-naphthyridine-3-carboxylic acid]
MIC (E. faecalis ATCC 29212; Enterococcus faecalis, ATCC29212, in presence of cefotaxime 64 μg/ml, read-out: gemifloxacin MIC): 0.008 µg/mL
gemifloxacin MIC (E. faecalis ATCC 29212; [2]): 0.03
gemifloxacin MIC (E. faecalis ATCC 29212; in presence of cefotaxime 16 μg/ml): 0.008 µg/mL
gemifloxacin MIC (E. faecalis ATCC 29212; in presence of cefotaxime 32 μg/ml): 0.008 µg/mL
MIC (E. coli ATCC 25922; Escherichia coli, ATCC25922, in presence of cefaclor 1 μg/ml, read-out: gemifloxacin MIC): 0.002 µg/mL
gemifloxacin MIC (E. coli ATCC 25922; [2]): 0.008
FICA ([1]; P. aeruginosa 6140): 0.06
Cgemifloxacin MIC ([1]; P. aeruginosa 6140): 0.5 µg/mL
FICA ([1]; P. aeruginosa 6168): 0.13
Cgemifloxacin MIC ([1]; P. aeruginosa 6168): 0.0625 µg/mL
FICA ([1]; P. aeruginosa P003): 0.06
Cgemifloxacin MIC ([1]; P. aeruginosa P003): 0.125 µg/mL
MIC ([1]; P. aeruginosa 6140): 8 µg/mL
MIC ([1]; P. aeruginosa 6168): 0.5 µg/mL
MIC ([1]; P. aeruginosa P003): 2 µg/mL
